# Laboratory results from US20140349948A1, “Treatment of Chronic Constipation” (Forest Laboratories Holdings Limited, priority 2009, published 2014).
# Marks after values point to notes of the source that are not given here. Residues, ends and D or L forms follow the SMILES beside them.
# What was measured:
# [1] = system: patients meeting modified Rome II criteria for chronic constipation; assay: Chronic Constipation Trial 1, 12-week treatment period; format: in vivo, human; conditions: for Straining, Week 1 Mean Change from Baseline / Abdominal discomfort, Week 1 Mean Change from Baseline / Bloating, Week 1 Mean Change from Baseline / Constipation severity, Week 1 Mean Change from Baseline: 5-point scale: 1 = none; for Straining, Week 1 Mean Change from Baseline: 5 = an extreme amount; for Abdominal discomfort, Week 1 Mean Change from Baseline / Bloating, Week 1 Mean Change from Baseline / Constipation severity, Week 1 Mean Change from Baseline: 5 = very severe; for Stool Consistency, Week 1 Mean Change from Baseline: 7-point scale (BSFS)
# Experimental: (§1) Linaclotide Capsules from Example 4 were administered in multicenter, randomized, double-blind, placebo-controlled trials.
# (§2) Trial 1 was conducted in 630 patients meeting modified Rome II criteria for chronic constipation. The trial included a two-week pretreatment baseline period and a 12-week treatment period. A diagram of the study design for Trial 2 is given in FIG. 1, which is substantially similar to Trial 1 except for the addition of a Randomized Withdrawal period in Trial 2 as described below.
# The Pretreatment Period is defined as the 14 to 21 calendar days immediately before starting the trial during which where patients provided information related to their daily bowel habits, daily assessment of the symptom severity, constipation severity, and use of other medicines, laxatives, suppositories, and/or enemas. Patients who satisfy the necessary criteria were entered into the Treatment Period. During the two-week pretreatment period, 72 percent of patients in Trial 1 had no CSBMs. A CSBM is an bowel movement that occurs in the absence of laxative, enema, or suppository usage within the preceding 24 hours that is accompanied by the patient self-reporting a feeling of complete emptying of the bowel.
# (§3) The Treatment Period began with randomization and lasted for 12 weeks. Patients were randomized to treatment with 133 μg linaclotide, 266 μg linaclotide, or placebo (1:1:1), taken once daily in the morning. Patients continued to provide their daily assessments such as their daily bowel habit assessments and daily patient symptom severity assessments.
# [2] = system: patients with chronic constipation; assay: Chronic Constipation Trial 2, 12-week treatment period; format: in vivo, human
# Experimental: as §1, §2, §3
# Trial 2 was conducted in 642 patients and was identical to Trial 1 except that Trial 2 also included a four-week Randomized Withdrawal Period, defined below. During the two-week pretreatment (baseline) period, 68 percent of patients in Trial 2 had no CSBMs.
# [3] = Trial 1, 133 μg (p≦0.0001) and 266 μg (p≦0.0001)
# [4] = Trial 1, 133 μg (p≦0.001) and 266 μg (p≦0.0001)
# [5] = 133 μg, Trial 2 (n = 217), 5-point scale: 1 = none, 5 = very severe
smiles,measurement,setting,value
"C[C@@H]1NC(=O)[C@@H]2CCCN2C(=O)[C@H](CC(N)=O)NC(=O)[C@@H]2CSSC[C@H](N)C(=O)N[C@H]3CSSC[C@H](NC1=O)C(=O)N[C@@H]([C@@H](C)O)C(=O)NCC(=O)N[C@H](C(=O)N[C@@H](Cc1ccc(O)cc1)C(=O)O)CSSC[C@H](NC(=O)[C@H](Cc1ccc(O)cc1)NC(=O)[C@H](CCC(=O)O)NC3=O)C(=O)N2 [Linaclotide, Cys1 Cys2 Glu3 Tyr4 Cys5 Cys6 Asn7 Pro8 Ala9 Cys10 Thr11 Gly12 Cys13 Tyr14] (HELM PEPTIDE1{C.C.E.Y.C.C.N.P.A.C.T.G.C.Y}$PEPTIDE1,PEPTIDE1,1:R3-6:R3|PEPTIDE1,PEPTIDE1,2:R3-10:R3|PEPTIDE1,PEPTIDE1,5:R3-13:R3$$$V2.0)","CSBM rate, Week 1 Mean Change from Baseline","[1]; 133 μg, Trial 1 (n = 213)",1.94***
same,"SBM rate, Week 1 Mean Change from Baseline","[1]; 133 μg, Trial 1 (n = 213)",4.09***
same,"Straining, Week 1 Mean Change from Baseline","[1]; 133 μg, Trial 1 (n = 213)",−1.04***
same,"Abdominal discomfort, Week 1 Mean Change from Baseline","[1]; 133 μg, Trial 1 (n = 213)",−0.27**
same,"Bloating, Week 1 Mean Change from Baseline","[1]; 133 μg, Trial 1 (n = 213)",−0.31*
same,"Constipation severity, Week 1 Mean Change from Baseline","[1]; 133 μg, Trial 1 (n = 213)",−0.78***
same,"Stool Consistency, Week 1 Mean Change from Baseline","[1]; 133 μg, Trial 1 (n = 213)",1.79***
same,"CSBM rate, Week 1 Mean Change from Baseline","[1]; 266 μg, Trial 1 (n = 202)",2.63***
same,"SBM rate, Week 1 Mean Change from Baseline","[1]; 266 μg, Trial 1 (n = 202)",4.09***
same,"Straining, Week 1 Mean Change from Baseline","[1]; 266 μg, Trial 1 (n = 202)",−1.10***
same,"Abdominal discomfort, Week 1 Mean Change from Baseline","[1]; 266 μg, Trial 1 (n = 202)",−0.28***
same,"Bloating, Week 1 Mean Change from Baseline","[1]; 266 μg, Trial 1 (n = 202)",−0.36***
same,"Constipation severity, Week 1 Mean Change from Baseline","[1]; 266 μg, Trial 1 (n = 202)",−0.81***
same,"Stool Consistency, Week 1 Mean Change from Baseline","[1]; 266 μg, Trial 1 (n = 202)",1.96***
same,12-week CSBM overall responder rate,"[1]; Trial 1, 133 μg",16.0%
same,increase in average weekly CSBMs from baseline,"[1]; Trial 1, 133 μg",2.0
same,increase in average weekly SBMs from baseline,"[1]; Trial 1, 133 μg",3.4
same,numerical increase of 12-week CSBM overall responder rate as compared to placebo,"[1]; Trial 1, 133 μg",2.6 fold
same,patients reporting at least one CSBM within 24 hours of treatment,"[1]; Trial 1, 133 μg",28.2%
same,patients reporting at least one SBM within 24 hours of treatment,"[1]; Trial 1, 133 μg",64.3%
same,patients with increase of ≧1 from baseline in weekly CSBMs in at least nine out of 12 weeks,"[1]; Trial 1, 133 μg",31.0%
same,patients with increase of ≧1 from baseline in weekly CSBMs in at least six out of 12 weeks,"[1]; Trial 1, 133 μg",47.4%
same,patients with ≧3 weekly CSBMs in at least nine out of 12 weeks,"[1]; Trial 1, 133 μg",16.0%
same,12-week CSBM overall responder rate,"[1]; Trial 1, 266 μg",21.3%
same,increase in average weekly CSBMs from baseline,"[1]; Trial 1, 266 μg",2.7
same,increase in average weekly SBMs from baseline,"[1]; Trial 1, 266 μg",3.7
same,numerical increase of 12-week CSBM overall responder rate as compared to placebo,"[1]; Trial 1, 266 μg",3.5 fold
same,patients reporting at least one CSBM within 24 hours of treatment,"[1]; Trial 1, 266 μg",29.7%
same,patients reporting at least one SBM within 24 hours of treatment,"[1]; Trial 1, 266 μg",60.4%
same,patients with increase of ≧1 from baseline in weekly CSBMs in at least nine out of 12 weeks,"[1]; Trial 1, 266 μg",40.1%
same,patients with increase of ≧1 from baseline in weekly CSBMs in at least six out of 12 weeks,"[1]; Trial 1, 266 μg",51.0%
same,patients with ≧3 weekly CSBMs in at least nine out of 12 weeks,"[1]; Trial 1, 266 μg",21.8%
same,"PAC-QOL overall assessments, 12 week overall mean change versus placebo",[1]; [3],statistically significant improvements
same,PAC-QOL subscale score Physical Discomfort versus placebo,[1]; [3],statistically significant improvements
same,PAC-QOL subscale score Satisfaction versus placebo,[1]; [3],statistically significant improvements
same,PAC-QOL subscale score Worries/Concerns versus placebo,[1]; [3],statistically significant improvements
same,"severity of straining score, 12 week overall mean change versus placebo",[1]; [3],statistically significant improvements
same,"stool consistency score, 12 week overall mean change versus placebo",[1]; [3],statistically significant improvements
same,"abdominal discomfort score, 12 week overall mean change versus placebo",[1]; [4],statistically significant improvements
same,"bloating score, 12 week overall mean change versus placebo",[1]; [4],statistically significant improvements
same,"constipation severity score, 12 week overall mean change versus placebo",[1]; [4],statistically significant improvements
same,"CSBM rate, Week 1 Mean Change from Baseline","[2]; 133 μg, Trial 2 (n = 217)",1.89***
same,"SBM rate, Week 1 Mean Change from Baseline","[2]; 133 μg, Trial 2 (n = 217)",3.59***
same,"Straining, Week 1 Mean Change from Baseline","[2]; 133 μg, Trial 2 (n = 217), 5-point scale: 1 = none, 5 = an extreme amount",−0.99***
same,"Abdominal discomfort, Week 1 Mean Change from Baseline",[2]; [5],−0.23
same,"Bloating, Week 1 Mean Change from Baseline",[2]; [5],−0.32**
same,"Constipation severity, Week 1 Mean Change from Baseline",[2]; [5],−0.80***
same,"Stool Consistency, Week 1 Mean Change from Baseline","[2]; 133 μg, Trial 2 (n = 217), 7-point scale (BSFS)",1.75***
same,"CSBM rate, Week 1 Mean Change from Baseline","[2]; 266 μg, Trial 2 (n = 216)",2.02***
